Results as given in ChEMBL document CHEMBL6153040, “Discovery of the salicylaldehyde-based compound DDO-02267 as a lysine-targeting covalent inhibitor of ALKBH5” (Eur J Med Chem, 2025).
The source made the active and inactive calls. The rule behind the calls is not given here.

What was measured:
RNA demethylase ALKBH5 [1] = biological target: T1, RNA demethylase ALKBH5 (Homo sapiens, UniProt Q6P6C2); test: Inhibition of ALKBH5 (66 to 292 residues) (unknown origin) demethylase activity extracted from Escherichia coli BL21 (DE3) cells at 200 uM preincubated for 3 hrs and measured after compound washout by small molecule dilution method
Target sequence in this assay (Q6P6C2 2-394 limits assumed): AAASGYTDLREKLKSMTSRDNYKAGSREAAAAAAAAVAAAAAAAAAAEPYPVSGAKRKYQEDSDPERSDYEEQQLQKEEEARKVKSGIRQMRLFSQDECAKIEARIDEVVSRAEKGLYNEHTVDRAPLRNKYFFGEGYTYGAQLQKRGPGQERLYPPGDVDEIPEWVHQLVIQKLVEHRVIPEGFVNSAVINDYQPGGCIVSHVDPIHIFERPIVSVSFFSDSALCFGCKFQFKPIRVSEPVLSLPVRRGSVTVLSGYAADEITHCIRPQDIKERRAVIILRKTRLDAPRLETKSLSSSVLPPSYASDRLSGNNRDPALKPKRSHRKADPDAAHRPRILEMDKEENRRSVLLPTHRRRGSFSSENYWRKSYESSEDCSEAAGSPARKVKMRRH

RNA demethylase ALKBH5 [2] = biological target: T1, RNA demethylase ALKBH5; test: Binding affinity to ALKBH5 (66 to 292 residues) (unknown origin) extracted from Escherichia coli BL21 (DE3) cells assessed as dissociation constant incubated for 1.5 hrs by MST analysis
Target sequence in this assay (Q6P6C2 whole entry, the tested form may be a part): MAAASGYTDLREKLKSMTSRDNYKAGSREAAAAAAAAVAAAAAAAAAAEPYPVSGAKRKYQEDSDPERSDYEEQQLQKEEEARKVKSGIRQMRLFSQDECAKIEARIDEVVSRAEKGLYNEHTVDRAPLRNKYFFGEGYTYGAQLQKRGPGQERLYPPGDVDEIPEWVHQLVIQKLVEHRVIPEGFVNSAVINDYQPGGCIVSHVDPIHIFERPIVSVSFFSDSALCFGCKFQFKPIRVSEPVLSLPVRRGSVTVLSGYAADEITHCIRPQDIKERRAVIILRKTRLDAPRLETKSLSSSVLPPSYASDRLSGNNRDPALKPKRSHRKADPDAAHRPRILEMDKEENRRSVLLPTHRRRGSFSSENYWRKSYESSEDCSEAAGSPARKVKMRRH

[3] = Selectivity ratio of IC50 for ALKBH3 (unknown origin) to IC50 for ALKBH5 (66 to 292 residues) (unknown origin) extracted from Escherichia coli BL21 (DE3) cells by fluorescence polarization assay
[4] = biological target: T2, Alpha-ketoglutarate-dependent dioxygenase alkB homolog 3 (Homo sapiens) (UniProt Q96Q83); test: Induction of thermal stabilization of ALKBH3 (unknown origin) assessed as change in melting temperature by thermal shift assay
T2 sequence (whole entry): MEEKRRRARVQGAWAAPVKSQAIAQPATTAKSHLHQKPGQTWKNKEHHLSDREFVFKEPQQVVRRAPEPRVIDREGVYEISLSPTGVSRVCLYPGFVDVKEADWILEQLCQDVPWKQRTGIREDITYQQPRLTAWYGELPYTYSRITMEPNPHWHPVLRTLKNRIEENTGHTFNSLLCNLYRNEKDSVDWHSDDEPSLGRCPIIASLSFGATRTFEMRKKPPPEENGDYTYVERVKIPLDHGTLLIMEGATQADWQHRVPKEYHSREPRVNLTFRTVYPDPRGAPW

RNA demethylase ALKBH5 [5] = biological target: T1, RNA demethylase ALKBH5; test: Binding affinity to ALKBH5 (66 to 292 residues) (unknown origin) extracted from Escherichia coli BL21 (DE3) cells at 1:1 protein:compound ratio by mass spectrometry analysis
Target sequence in this assay (Q6P6C2 2-394 limits assumed): as the sequence (Q6P6C2 2-394 limits assumed) above

RNA demethylase ALKBH5 [6] = biological target: T1, RNA demethylase ALKBH5; test: Inhibition of ALKBH5 (66 to 292 residues) (unknown origin) extracted from Escherichia coli BL21 (DE3) cells using m6A ssDNA as substrate measured immediately by fluorescence polarization assay
Target sequence in this assay (Q6P6C2 whole entry, the tested form may be a part): as the sequence (Q6P6C2 whole entry, the tested form may be a part) above

[7] = system: RNA demethylase ALKBH5 (Homo sapiens), Q6P6C2 [K132E]; test: Induction of thermal stabilization of ALKBH5 K132E mutant (66 to 292 residues) (unknown origin) extracted from Escherichia coli BL21 (DE3) cells assessed as melting temperature by thermal shift assay (reference value: 47.05 degreeC)
RNA demethylase ALKBH5 [8] = biological target: T1, RNA demethylase ALKBH5; test: Inhibition of ALKBH5 (66 to 292 residues) (unknown origin) extracted from Escherichia coli BL21 (DE3) cells using m6A ssDNA as substrate measured after 1 hrs by fluorescence polarization assay
Target sequence in this assay (Q6P6C2 whole entry, the tested form may be a part): as above

Chain of RNA demethylase ALKBH5 (Homo sapiens), Q6P6C2 [K132E] (Q6P6C2 whole entry K132E, the tested form may be a part): as the sequence (Q6P6C2 whole entry, the tested form may be a part) above, with K132E counted along it

In the case of `O=Cc1cc(S(=O)(=O)NC(=O)c2cc(C(=O)O)ccn2)c2ccccc2c1O`, the inhibition (RNA demethylase ALKBH5 [1]) is reported as “Active”, the Kd (RNA demethylase ALKBH5 [2]) is reported as 1140 nM and the Ratio IC50 [3] is reported as 20. For the same compound, the ΔTm [4] was less than 1 °C, the Activity (RNA demethylase ALKBH5 [5]) was “Active; Mass Peak Of 28,181.6 Da Observed” and the IC50 (RNA demethylase ALKBH5 [6]) was 1430 nM. For the same compound, the Tm [7] was 46.1 °C and the IC50 (RNA demethylase ALKBH5 [8]) was 480 nM.
